The subject of experiment [1] is vascular endothelial cells. To be noted: cited from earlier work.
Another experiment relates to Rac protein. Put plainly: Nuclear transfer of GFP/Rac fusion protein in transformed HUVEC, observed by fluorescence microscopy. The class given is cell-based. The conditions noted are these: HUVEC expressing GFP/Rac fusion protein; pitavastatin 1 μM, 15 hours stationary culture; GFP fluorescence, nuclei stained with Hoechst. As to the method:
The present inventors measured the behavior of Rac protein in HUVEC with an HMG-CoA reductase inhibitor, particularly pitavastatin. For this measurement, a gene encoding a Rac/fluorescence protein GFP fusion protein was introduced into HUVEC to prepare a transformed cell expressing a GFP/Rac fusion protein. This transformed cell was cultured, and the state of Rac distributed in the cell in the presence or absence of pitavastatin was examined by observing the fluorescence of GFP. A gene encoding the whole area of a Rac translation region was introduced into a predetermined position of a commercial plasmid pEGFP-C1 for preparation of a fusion protein consisting of GFP and a desired protein, to construct a plasmid comprising the GFP-Rac gene. After HUVECs were put to a 6-well plate and then cultured overnight in EGM-2 medium. Using Fugene 6, the plasmid construct DNA prepared above was added in an amount of 0.8 μg/well to the cells. The cells were further cultured for 21 hours in EGM-2 medium, and then the fluorescence of GFP was observed under a fluorescence microscope. Six hours after the culture of HUVECs to which the plasmid construct DNA had been added was initiated, pitavastatin was added to the cells to a final concentration of 1 μM. And then the cells were subjected to stationary culture for 15 hours, fixed onto a prepared slide and observed under a fluorescence microscope. […]

“Also recorded” adds a separate entry of the source.

Regarding `O=C(O)C[C@H](O)C[C@H](O)/C=C/c1c(C2CC2)nc2ccccc2c1-c1ccc(F)cc1` [pitavastatin, (3R,5S,6E)-7-[2-cyclopropyl-4-(4-fluorophenyl)-3-quinolyl]-3,5-dihydroxy-6-heptenoic acid], in experiment [1], the “expression of MCP-1” value is “suppresses”, the “expression of NO synthase” value is given as “promotes”, the “expression of PAI-1” value is recorded as “suppresses” and the “expression of PTX3” value was “suppresses”. In experiment [1], the expression of endothelin entry is “suppresses”, the “expression of inflammatory cytokine IL-8” value is listed as “suppresses” and the expression of thrombomodulin result was “promotes”. The “state of Rac distributed in the cell (transfer of GFP-Rac into the nucleus)” value in the experiment on Rac protein is recorded as “fluorescence of GFP was localized in a certain area of the cells; also recorded: GFP-Rac is transferred to a nucleus”.

Source of the values: patent US8309574B2, “Nuclear transfer promoter for Rac protein and method of screening the same” (Kowa Company, Ltd., priority 2004, dated 2012).
